pIC50: −log10 of the molar value. ≈ marks a conversion by molar mass, not a printed value. Where two headings read alike, the source gives them in different places.
Key:
[1] = test system: C. albicans; experiment: Antifungal Activity Assay (broth microtiter MIC), C. albicans; format: cell-based, Candida albicans; details: Candida albicans, ATCC90028, 48 h
Procedure, shortened: (§1)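 MICs were scored by eye at 48 h relative to the growth control. Plates followed CLSI M27-A3, with Candida suspensions in RPMI 1640+MOPS giving a final 2.5×10^3 CFU/mL; the colonies came from Sabouraud agar grown overnight at 35 °C.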

[2] = test system: Botrtyis cinerea (Bc); experiment: Growth inhibition assay of fungal pathogens, Bc; format: cell-based; details: 48 h
Procedure, shortened: (§2)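 Pathogen growth in 17% V8 broth is measured by OD600 at 24 and 48 hours, after blank subtraction, in the presence of compound at 50, 10 and 2 ppm or 2, 0.4 and 0.08 ppm. Inhibition in percent comes from 48-hour readings against the DMSO control.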

[3] = test system: Fusarium moniliforme (Fm); experiment: Growth inhibition assay of fungal pathogens, Fm; format: cell-based; details: for IC90: Fusarium verticillioides, 48 h, read-out: Concentration at 90% Inhibition Fm
Procedure, shortened: as §2

[4] = test system: Fusarium virguliforme (Fv); experiment: Growth inhibition assay of fungal pathogens, Fv; format: cell-based; details: 48 h
Procedure, shortened: as §2

[5] = target: fungal (fACC2) (UniProt Q00955); details: read-out: fACC2 (in vitro ACC2 Inhibition Assay, IC50), ADP-Glo, 5 nM ACC2, 20 μM ATP, 20 μM acetyl-CoA
[6] = test system: Diplodia maydis (Dm); experiment: Growth inhibition assay of fungal pathogens, Dm; format: cell-based; details: Stenocarpella maydis, 48 h
Procedure, shortened: as §2

[7] = test system: Septoria tritici (St); experiment: Growth inhibition assay of fungal pathogens, St; format: cell-based; details: Zymoseptoria tritici, 48 h
Procedure, shortened: as §2

[8] = test system: C. parapsilosis; experiment: Antifungal Activity Assay (broth microtiter MIC), C. parapsilosis; format: cell-based, Candida parapsilosis; details: Lodderomyces parapsilosis, ATCC22019, 48 h
Procedure, shortened: as §1

[9] = target: human (hACC2) (Homo sapiens, UniProt O00763); experiment: In vitro ACC inhibition assay (ADP-Glo), hACC2; format: biochemical; details: 5 nM ACC2, 20 μM ATP, 20 μM acetyl-CoA
Method: The detailed procedure is as follows. […] 10 μL ADP glo reagent was added. […] 20 μL kinase detection reagent was added.

[10] = test system: Rhizoctonia solani (Rs); experiment: Growth inhibition assay of fungal pathogens, Rs; format: cell-based; details: 48 h
[11] = read-out: MIC, C. albicans ATCC 90028, Table 3a, 3 replicates, MIC recorded at 48 h
[12] = read-out: MIC, C. albicans ATCC 90028, Table 3b (additional results), 3 replicates, MIC recorded at 48 h
[13] = read-out: Concentration at 90% Inhibition Bc, Botrtyis cinerea, growth inhibition at 48 hours vs 2% DMSO control
[14] = read-out: Concentration at 90% Inhibition Bc, Botrtyis cinerea, growth inhibition vs 2% DMSO control at 48 hours
[15] = Fusarium moniliforme, growth inhibition at 48 hours vs 2% DMSO control
[16] = read-out: Concentration at 90% Inhibition Fv, Fusarium virguliforme, growth inhibition at 48 hours vs 2% DMSO control
[17] = read-out: Concentration at 90% Inhibition Fv, Fusarium virguliforme, growth inhibition vs 2% DMSO control at 48 hours
[18] = read-out: Concentration at 90% Inhibition Dm, Diplodia maydis, growth inhibition at 48 hours vs 2% DMSO control
[19] = read-out: Concentration at 90% Inhibition Dm, Diplodia maydis, growth inhibition vs 2% DMSO control at 48 hours
[20] = read-out: Concentration at 90% Inhibition St, Septoria tritici, growth inhibition at 48 hours vs 2% DMSO control
[21] = read-out: Concentration at 90% Inhibition St, Septoria tritici, growth inhibition vs 2% DMSO control at 48 hours
[22] = read-out: MIC, C. parapsilosis ATCC 22019, Table 3a, 3 replicates, MIC recorded at 48 h
[23] = read-out: MIC, C. parapsilosis ATCC 22019, Table 3b (additional results), 3 replicates, MIC recorded at 48 h
[24] = read-out: Concentration at 90% Inhibition Rs, Rhizoctonia solani, mycelial plugs, growth inhibition at 48 hours vs 2% DMSO control
[25] = read-out: Concentration at 90% Inhibition Rs, Rhizoctonia solani, mycelial plugs, growth inhibition vs 2% DMSO control at 48 hours

Chain of human (hACC2) (O00763 whole entry): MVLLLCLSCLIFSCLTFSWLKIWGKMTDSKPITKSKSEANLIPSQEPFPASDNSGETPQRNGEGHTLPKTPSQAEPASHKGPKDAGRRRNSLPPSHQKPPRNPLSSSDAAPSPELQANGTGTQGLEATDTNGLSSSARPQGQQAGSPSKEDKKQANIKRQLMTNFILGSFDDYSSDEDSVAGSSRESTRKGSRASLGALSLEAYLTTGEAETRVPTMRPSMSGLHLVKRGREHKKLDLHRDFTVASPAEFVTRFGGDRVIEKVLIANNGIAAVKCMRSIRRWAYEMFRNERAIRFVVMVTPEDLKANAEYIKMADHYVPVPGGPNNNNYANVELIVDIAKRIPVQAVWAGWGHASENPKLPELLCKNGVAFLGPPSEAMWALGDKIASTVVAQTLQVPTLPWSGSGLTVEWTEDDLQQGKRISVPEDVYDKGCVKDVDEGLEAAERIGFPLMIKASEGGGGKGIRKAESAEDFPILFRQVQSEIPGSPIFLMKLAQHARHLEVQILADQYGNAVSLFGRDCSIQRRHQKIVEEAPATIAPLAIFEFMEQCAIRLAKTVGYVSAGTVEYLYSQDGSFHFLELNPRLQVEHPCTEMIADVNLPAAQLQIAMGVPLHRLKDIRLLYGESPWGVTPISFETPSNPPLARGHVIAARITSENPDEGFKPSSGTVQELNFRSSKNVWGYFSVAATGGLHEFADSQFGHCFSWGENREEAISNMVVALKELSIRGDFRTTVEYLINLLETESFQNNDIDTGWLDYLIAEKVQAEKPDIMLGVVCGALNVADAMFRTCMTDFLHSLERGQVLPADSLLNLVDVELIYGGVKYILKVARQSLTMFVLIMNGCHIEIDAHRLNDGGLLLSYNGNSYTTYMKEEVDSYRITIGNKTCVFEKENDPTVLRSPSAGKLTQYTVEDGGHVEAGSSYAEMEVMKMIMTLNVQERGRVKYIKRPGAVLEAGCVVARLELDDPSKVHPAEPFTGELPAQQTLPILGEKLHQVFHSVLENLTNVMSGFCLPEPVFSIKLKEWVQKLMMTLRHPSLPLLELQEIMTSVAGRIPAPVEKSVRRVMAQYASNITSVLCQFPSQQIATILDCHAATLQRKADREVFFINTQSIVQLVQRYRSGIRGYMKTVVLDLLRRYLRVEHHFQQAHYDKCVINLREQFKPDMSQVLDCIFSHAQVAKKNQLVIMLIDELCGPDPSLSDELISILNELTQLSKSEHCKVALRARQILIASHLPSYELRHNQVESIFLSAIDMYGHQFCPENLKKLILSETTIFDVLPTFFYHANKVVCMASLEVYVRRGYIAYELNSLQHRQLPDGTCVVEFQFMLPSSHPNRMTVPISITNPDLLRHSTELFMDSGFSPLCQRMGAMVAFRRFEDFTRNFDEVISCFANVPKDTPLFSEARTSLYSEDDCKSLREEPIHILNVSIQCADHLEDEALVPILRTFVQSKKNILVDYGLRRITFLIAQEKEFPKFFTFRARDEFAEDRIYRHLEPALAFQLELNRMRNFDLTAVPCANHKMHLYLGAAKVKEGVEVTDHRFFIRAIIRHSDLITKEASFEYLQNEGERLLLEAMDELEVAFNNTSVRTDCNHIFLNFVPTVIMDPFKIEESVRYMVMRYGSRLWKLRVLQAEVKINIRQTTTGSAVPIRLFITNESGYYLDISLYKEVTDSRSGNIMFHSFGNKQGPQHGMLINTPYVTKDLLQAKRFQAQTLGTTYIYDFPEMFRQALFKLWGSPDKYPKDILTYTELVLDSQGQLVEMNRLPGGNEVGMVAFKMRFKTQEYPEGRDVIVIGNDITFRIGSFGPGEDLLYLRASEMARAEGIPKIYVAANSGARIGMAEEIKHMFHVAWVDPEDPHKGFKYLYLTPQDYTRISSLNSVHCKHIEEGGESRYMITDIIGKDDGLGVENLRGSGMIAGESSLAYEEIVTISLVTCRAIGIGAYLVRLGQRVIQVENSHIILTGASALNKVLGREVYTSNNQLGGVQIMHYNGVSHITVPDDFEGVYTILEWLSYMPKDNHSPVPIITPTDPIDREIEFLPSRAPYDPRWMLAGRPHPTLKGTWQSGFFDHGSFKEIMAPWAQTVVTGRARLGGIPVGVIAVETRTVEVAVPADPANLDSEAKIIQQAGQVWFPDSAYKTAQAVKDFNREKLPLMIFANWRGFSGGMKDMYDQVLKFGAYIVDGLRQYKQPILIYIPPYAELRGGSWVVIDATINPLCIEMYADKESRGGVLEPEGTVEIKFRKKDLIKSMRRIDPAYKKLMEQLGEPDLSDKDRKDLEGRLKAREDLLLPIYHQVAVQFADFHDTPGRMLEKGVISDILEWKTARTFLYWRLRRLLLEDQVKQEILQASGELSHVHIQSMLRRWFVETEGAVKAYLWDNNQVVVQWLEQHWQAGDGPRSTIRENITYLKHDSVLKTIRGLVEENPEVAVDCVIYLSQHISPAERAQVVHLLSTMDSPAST
Chain of fungal (fACC2) (Q00955 whole entry): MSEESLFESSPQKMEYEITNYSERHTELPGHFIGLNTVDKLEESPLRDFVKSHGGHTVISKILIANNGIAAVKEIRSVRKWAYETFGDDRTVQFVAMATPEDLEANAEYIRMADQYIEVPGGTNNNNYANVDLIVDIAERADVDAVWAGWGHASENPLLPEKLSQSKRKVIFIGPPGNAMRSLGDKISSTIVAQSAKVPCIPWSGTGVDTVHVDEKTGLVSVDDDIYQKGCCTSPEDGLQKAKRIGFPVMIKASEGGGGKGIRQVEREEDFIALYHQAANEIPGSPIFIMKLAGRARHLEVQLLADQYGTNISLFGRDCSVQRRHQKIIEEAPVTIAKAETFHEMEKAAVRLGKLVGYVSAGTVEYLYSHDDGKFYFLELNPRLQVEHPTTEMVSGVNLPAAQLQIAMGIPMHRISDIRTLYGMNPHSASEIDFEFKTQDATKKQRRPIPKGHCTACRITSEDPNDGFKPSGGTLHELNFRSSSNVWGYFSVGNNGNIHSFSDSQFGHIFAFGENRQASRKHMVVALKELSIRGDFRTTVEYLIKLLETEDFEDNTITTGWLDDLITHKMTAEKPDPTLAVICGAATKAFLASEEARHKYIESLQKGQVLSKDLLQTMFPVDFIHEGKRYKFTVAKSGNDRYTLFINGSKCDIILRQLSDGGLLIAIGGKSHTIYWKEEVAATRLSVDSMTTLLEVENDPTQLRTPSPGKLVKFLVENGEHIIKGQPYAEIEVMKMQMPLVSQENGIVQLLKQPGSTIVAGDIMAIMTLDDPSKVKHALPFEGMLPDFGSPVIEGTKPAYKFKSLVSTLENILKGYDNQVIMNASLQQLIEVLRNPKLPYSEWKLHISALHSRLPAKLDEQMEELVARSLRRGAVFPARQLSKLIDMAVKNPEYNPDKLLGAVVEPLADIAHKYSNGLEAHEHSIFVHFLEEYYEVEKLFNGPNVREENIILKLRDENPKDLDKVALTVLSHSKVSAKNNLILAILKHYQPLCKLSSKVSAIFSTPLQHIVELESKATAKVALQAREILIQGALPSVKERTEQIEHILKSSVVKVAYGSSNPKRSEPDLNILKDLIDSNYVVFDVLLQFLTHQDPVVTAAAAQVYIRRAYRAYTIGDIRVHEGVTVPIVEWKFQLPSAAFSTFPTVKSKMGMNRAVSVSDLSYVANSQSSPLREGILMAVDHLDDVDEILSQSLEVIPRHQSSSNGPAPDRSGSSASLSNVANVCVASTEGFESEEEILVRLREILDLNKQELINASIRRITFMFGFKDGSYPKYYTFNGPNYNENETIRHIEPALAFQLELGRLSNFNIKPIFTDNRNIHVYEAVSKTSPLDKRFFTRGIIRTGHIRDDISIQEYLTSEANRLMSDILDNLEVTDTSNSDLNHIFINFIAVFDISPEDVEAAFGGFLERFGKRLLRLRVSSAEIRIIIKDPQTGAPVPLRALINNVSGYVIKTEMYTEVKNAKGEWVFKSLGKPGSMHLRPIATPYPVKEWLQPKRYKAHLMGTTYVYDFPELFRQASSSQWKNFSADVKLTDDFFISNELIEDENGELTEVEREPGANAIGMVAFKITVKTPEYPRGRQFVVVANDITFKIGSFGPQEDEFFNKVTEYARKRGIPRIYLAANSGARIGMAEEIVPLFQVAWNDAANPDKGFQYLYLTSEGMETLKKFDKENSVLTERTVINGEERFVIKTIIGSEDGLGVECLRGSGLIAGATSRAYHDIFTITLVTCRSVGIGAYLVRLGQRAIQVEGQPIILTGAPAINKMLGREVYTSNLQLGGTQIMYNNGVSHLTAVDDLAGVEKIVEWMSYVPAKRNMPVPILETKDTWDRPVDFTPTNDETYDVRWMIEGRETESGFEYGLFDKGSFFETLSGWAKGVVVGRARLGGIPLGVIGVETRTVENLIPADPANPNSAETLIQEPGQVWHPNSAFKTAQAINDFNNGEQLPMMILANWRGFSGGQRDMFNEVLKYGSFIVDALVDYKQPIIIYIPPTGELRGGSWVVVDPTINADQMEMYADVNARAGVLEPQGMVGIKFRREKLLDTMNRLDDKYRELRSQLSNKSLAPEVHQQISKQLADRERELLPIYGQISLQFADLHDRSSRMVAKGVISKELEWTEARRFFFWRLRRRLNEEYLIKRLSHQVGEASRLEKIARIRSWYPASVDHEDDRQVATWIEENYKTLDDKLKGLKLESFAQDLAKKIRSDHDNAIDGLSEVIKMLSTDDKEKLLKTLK

| SMILES | MIC [1, 11] [µg/mL] | MIC [1, 12] [µg/mL] | IC90 [2, 13] [µg/mL] | IC90 [2, 14] [µg/mL] | Concentration at 90% Inhibition Fm [3, 15] | IC90 [3] [µg/mL] | IC90 [4, 16] [µg/mL] | IC90 [4, 17] [µg/mL] | pIC50 ([5]; Table 2a) | pIC50 ([5]; Table 2b, additional results) | IC90 [6, 18] [µg/mL] | IC90 [6, 19] [µg/mL] | IC90 [7, 20] [µg/mL] | IC90 [7, 21] [µg/mL] | MIC [8, 22] [µg/mL] | MIC [8, 23] [µg/mL] | pIC50 ([9]; Table 2a) | pIC50 ([9]; Table 2b, additional results) | IC90 [10, 24] [µg/mL] | IC90 [10, 25] [µg/mL] | also measured |
| --- | --- | --- | --- | --- | --- | --- | --- | --- | --- | --- | --- | --- | --- | --- | --- | --- | --- | --- | --- | --- | --- |
| CNC(=O)C(C)(C)n1c(=O)c2c(C)c(-n3nccn3)sc2n(C[C@H](OC(C)C)c2cc(F)ccc2OC)c1=O [Compound I-50, (R)-2-(1-(2-(5-fluoro-2-methoxyphenyl)-2-isopropoxy-ethyl)-5-methyl-2,4-dioxo-6-(2H-1,2,3-triazol-2-yl)-1,4-dihydrothieno[2,3-d]pyrimidin-3(2H)-yl)-N,2-dimethylpropanamide] | 1.1 to 2 (≈ 1.97 to 3.58 µM) | 1.01 to 2 (≈ 1.81 to 3.58 µM) | 2 (≈ 3.58 µM) | 2 (≈ 3.58 µM) | A (compound concentration of 0.4 ppm at 90% inhibition of fungal pathogens) | 0.4 (≈ 0.716 µM) | 0.4 (≈ 0.716 µM) | 0.4 (≈ 0.716 µM) | 8.30 to 9.00 | 8.30 to 9.00 | 10 (≈ 17.9 µM) | > 50 | > 50 | > 50 | 2.1 to 4 (≈ 3.76 to 7.16 µM) | 2.01 to 4 (≈ 3.6 to 7.16 µM) | 8.00 to 8.30 | 8.00 to 8.30 | 2 (≈ 3.58 µM) | 10 (≈ 17.9 µM) |  |
| COc1ccc(F)cc1[C@H](Cn1c(=O)n(C(C)(C)C(=O)N2CC=CC2)c(=O)c2c(C)c(-n3nccn3)sc21)OC(C)C [Compound I-51, (R)-3-(1-(2,5-dihydro-1H-pyrrol-1-yl)-2-methyl-1-oxopropan-2-yl)-1-(2-(5-fluoro-2-methoxyphenyl)-2-isopropoxyethyl)-5-methyl-6-(2H-1,2,3-triazol-2-yl)thieno[2,3-d]pyrimidine-2,4(1H,3H)-dione] |  |  |  |  |  |  |  |  | 8.30 to 9.00 | 8.30 to 9.00 |  |  |  |  |  |  | 8.00 to 8.30 | 8.00 to 8.30 |  |  | MIC ([1]; Table 3a, ATCC 90028, 3 replicates, MIC recorded at 48 h, read-out: MIC, C. albicans ATCC 90028): 0.25 to 1 µg/mL (≈ 0.419 to 1.68 µM); MIC ([1]; Table 3b (additional results), ATCC 90028, 3 replicates, MIC recorded at 48 h, read-out: MIC, C. albicans ATCC 90028): 1.01 to 2 µg/mL (≈ 1.69 to 3.35 µM); IC90 ([2]; Botrtyis cinerea, growth inhibition at 48 hours vs 2% DMSO control, read-out: Concentration at 90% Inhibition Bc): 0.4 µg/mL (≈ 0.67 µM); IC90 ([2]; Botrtyis cinerea, growth inhibition vs 2% DMSO control at 48 hours, read-out: Concentration at 90% Inhibition Bc): 0.4 µg/mL (≈ 0.67 µM); IC90 [3, 15]: 0.08 µg/mL (≈ 0.134 µM); IC90 ([3]; Fusarium moniliforme, growth inhibition vs 2% DMSO control at 48 hours): 0.08 µg/mL (≈ 0.134 µM); IC90 ([4]; growth inhibition at 48 hours vs 2% DMSO control, read-out: Concentration at 90% Inhibition Fv): 0.4 µg/mL (≈ 0.67 µM); IC90 ([4]; growth inhibition vs 2% DMSO control at 48 hours, read-out: Concentration at 90% Inhibition Fv): 0.4 µg/mL (≈ 0.67 µM); IC90 ([6]; Diplodia maydis, growth inhibition at 48 hours vs 2% DMSO control, read-out: Concentration at 90% Inhibition Dm): 0.08 µg/mL (≈ 0.134 µM); IC90 ([6]; Diplodia maydis, growth inhibition vs 2% DMSO control at 48 hours, read-out: Concentration at 90% Inhibition Dm): 0.08 µg/mL (≈ 0.134 µM); IC90 ([7]; Septoria tritici, growth inhibition at 48 hours vs 2% DMSO control, read-out: Concentration at 90% Inhibition St): 2 µg/mL (≈ 3.35 µM); IC90 ([7]; Septoria tritici, growth inhibition vs 2% DMSO control at 48 hours, read-out: Concentration at 90% Inhibition St): 10 µg/mL (≈ 16.8 µM); MIC ([8]; Table 3a, ATCC 22019, 3 replicates, MIC recorded at 48 h, read-out: MIC, C. parapsilosis ATCC 22019): 1.1 to 2 µg/mL (≈ 1.84 to 3.35 µM); MIC ([8]; Table 3b (additional results), ATCC 22019, 3 replicates, MIC recorded at 48 h, read-out: MIC, C. parapsilosis ATCC 22019): > 4.01 µg/mL; IC90 ([10]; mycelial plugs, growth inhibition at 48 hours vs 2% DMSO control, read-out: Concentration at 90% Inhibition Rs): 0.4 µg/mL (≈ 0.67 µM); IC90 ([10]; mycelial plugs, growth inhibition vs 2% DMSO control at 48 hours, read-out: Concentration at 90% Inhibition Rs): 0.4 µg/mL (≈ 0.67 µM) |
| COc1ccc(F)cc1[C@H](Cn1c(=O)n(C(C)(C)C(=O)NCC#N)c(=O)c2c(C)c(-n3nccn3)sc21)OC(C)C [Compound I-52, (R)—N-(cyanomethyl)-2-(1-(2-(5-fluoro-2-methoxyphenyl)-2-isopropoxyethyl)-5-methyl-2,4-dioxo-6-(2H-1,2,3-triazol-2-yl)-1,4-dihydro-thieno[2,3-d]pyrimidin-3(2H)-yl)-2-methylpropanamide] | 2.1 to 4 (≈ 3.6 to 6.85 µM) | 1.01 to 2 (≈ 1.73 to 3.43 µM) | 2 (≈ 3.43 µM) | 2 (≈ 3.43 µM) | B (compound concentration of 2.0 ppm at 90% inhibition of fungal pathogens) | 2 (≈ 3.43 µM) | 2 (≈ 3.43 µM) | 2 (≈ 3.43 µM) | 8.30 to 9.00 | 8.30 to 9.00 | 10 (≈ 17.1 µM) | > 50 | > 50 | > 50 | 2.1 to 4 (≈ 3.6 to 6.85 µM) | 2.01 to 4 (≈ 3.44 to 6.85 µM) | 7.40 to 8.00 | 7.40 to 8.00 | > 50 | > 50 |  |

Source: patent US10800791B2, “Triazole ACC inhibitors and uses thereof” (Gilead Apollo, LLC, priority 2015, dated 2020)
